Measurements taken from US5508275A, “Lipid-selective antioxidants and their preparation and use” (Hoechst Aktiengesellschaft, priority 1990, dated 1996).

What was measured:
[1] = test system: proneness to thrombosis of hyperlipidemic infarct-sensitive rats; experiment: Long-term administration in the hyperlipidemic infarct-sensitive rat: laser-induced thrombosis test (Method XI); format: in vivo; conditions: 50 mg/kg oral, after 9 days
Experimental: Male infarct-sensitive rats about 200 g in weight (Mollegaard, Ejby, Denmark) were treated orally once daily with 1 ml/100 g of body weight of a standard diet (100 g of cholic acid, 100 g of cholesterol, 30 g of propylthiouracil to 1 l of sesame oil). While no test substance was administered to the control group I (cf. the following Table), the standard diet in the pharmaceutical experiments II-IV additionally contained 50 mg/kg of body weight of the test substances indicated in the table below. After 9 days, the rats were examined, as described above, in the laser-induced thrombosis test, and the total cholesterol content of the serum was determined.

[2] = Solubility in water and olive oil (Method III)
Experimental: a) Preparation of olive oil or aqueous solutions. 1 ml of olive oil or I ml of double-distilled water (or dilute NaOH pH=7.6) was added to 1 mg or 10 mg or 50 mg of the respective compound at 37° C. and it was checked whether a clear solution was obtained. The optionally centrifuged and decanted olive oil solutions were heated for 5 minutes using a Bunsen burner and the degree of browning of the olive oil was determined. […] Samples having poor protective action are given a (*) in the table (see below).

[3] = Inhibition of the oxidation of lipids: SA-PC in cyclohexane (Method IV); format: biochemical; conditions: 37° C., absorption at 234 nm
Experimental: Oxidation of 1-stearoyl-2-arachidonoylphosphatidylcholine (SA-PC) in cyclohexane (37° C.). 100 mcl of a SA-PC solution (10 mg/ml of CHCl3) were evaporated by blowing (argon) and the residue was taken up in 1 ml of cyclohexane. After adding an amount of antioxidant which would also dissolve in olive oil (cf. Table 1), the absorption was measured at 234 nm (Perkin Elmer 5528 spektrophotometer, Uberlingan, FRG) and the solvent was then evaporated by blowing with air. After a fur%her 24 hours standing in an open vessel, the residue was again dissolved in i ml of cyclohexane and the absorption at 234 nm was measured as a measurement of the oxidized SA-PC.

[4] = test system: thrombus formation in rats; experiment: Laser-induced thrombosis in rats in vivo (Method VIII); design: species or system rat; conditions: 30 mg/kg oral, laser induction 60 min after administration
Experimental: The experimental procedure was carried out in every detail as described in U.S. Pat. No. 4,694,024. Laser induction took place 60 min after oral administration of the antioxidants.

[5] = Long-term administration in the hyperlipidemic infarct-sensitive rat: total serum cholesterol (Method XI); format: in vivo; conditions: 50 mg/kg oral, after 9 days; control 286
Experimental: While no test substance was administered to the control group I (cf. the following Table), the standard diet in the pharmaceutical experiments II-IV additionally contained 50 mg/kg of body weight of the test substances indicated in the table below. After 9 days, the rats were examined, as described above, in the laser-induced thrombosis test, and the total cholesterol content of the serum was determined. […] Moreover, the substances according to the invention exerted an advantageous hypolipidemic effect.

[6] = Antioxidative radical scavenger properties by the diphenylpicrylhydrazine (DPPH) method (Method I); format: biochemical; conditions: absolute ethanol
Experimental: Antioxidative radical scavenger properties by the diphenylpicrylhydrazine (DPPH) method: The determination was carried out spectrophotometrically (PMQ4 from Zeiss, Oberkochen, FRG) by the method described in Smith and Reeves, Biochemical Pharmacology 36 (1987) pp. 1457-1460. The measurement is the rate constant determined graphically (concentration versus conversion rate) in a known manner, measured in absolute ethanol.

[7] = olive oil, organic solvent or mixture

Molecule	Reduction in proneness to thrombosis vs. control (%) [1] [%]	solubility [2, 7] [µg/mL]	solubility ([2]; water) [µg/mL]	prevention of the oxidation of SA-PC, reduced dithiol vs. corresponding oxidized dithio compounds [3]	Reduction of thrombus formation [4] [%]	Total cholesterol [5] [mg/dL]	Reaction with DPPH (rate constant) [6]	Solubility, Olive oil ([2]; olive oil) [µg/mL]	Solubility, Water ([2]; water) [µg/mL]
CCCCCCCCCCCCCCCCCCNC(=O)CCCCC(S)CCS (racemic) [Example 49]	34	> 10000	< 100	possible to prevent the oxidation of SA-PC Just as effectively	20	259			
O=C1O[C@H]([C@@H](O)CO)C(O)=C1O [Ascorbic acid]							2.99		
Cc1c(C)c2c(c(C)c1O)CCC(C)(C(=O)NCCCNC(=O)CC[C@@H](C)[C@H]1CC[C@H]3[C@@H]4CC[C@@H]5C[C@H](O)CC[C@]5(C)[C@H]4C[C@H](O)[C@]13C)O2 (some centres unmarked) [Example 2]	50	> 10000	> 100		14	270			
Vitamin E [reference compound]	26				5	278		> 10000	< 100
